The test system of one assay is C57BL/6J Lep ob/ob mice. Description: Weight loss effects in obese mice (ob/ob). Type of assay: in vivo. The following applies: vs 0.1% SLS controls. Summed up: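 Male-unspecified C57BL/6J Lep ob/ob mice (6–15 weeks old, n=3 per group) on low-fat chow received compound by daily oral gavage (40–150 mg/kg, 10 ml/kg) for 6 days to 2 weeks, with 0.1% SLS vehicle as control. Body weight was recorded daily, gain calculated from day 1 to the day before termination, and food intake measured twice weekly.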

For another assay, the system named is C57BLKS/J db/db mice. The assay can be described thus: Weight loss effects and blood sugar in diabetic mice (db/db). Type of assay: in vivo. The following applies: four weeks, vs 0.1% SLS controls. As to the method: 7 week-old C57BLKS/J db/db mice (chales river laboratories Japan, Inc) having genetic diabetic characteristics available from ORIENTBIO were prepared. Two mice were raised in each polycarbonate breeding cage (200 W×260 L×130H (mm), Three-shine) in which temperature was 22 to 24° C., relative humidity was 30 to 50%, illuminance was 150 to 300 lux, night and day were 12 hours, and exhaust was performed at 10 to 15 air changes per hour. As a feed, low fat diet (11.9 kcal % fat, 5053, Labdiet) manufactured by ORIENTBIO was used. The feed was contained in a feeder and free intake was allowed. As drinking water, water, which was contained in a 250 mL polycarbonate based bottle, purified through a filter and a sterilizer was used and free intake was allowed.
The compound according to Example 1 synthesized in the present invention was orally administered to three C57BLKS/J db/db mice in amounts of 40 mg/kg, 80 mg/kg, and 120 mg/kg, respectively, once every day for four weeks. For administration, a disposable syringe fitted with a sonde for oral administration was used and 10 ml/kg of the compound was orally administered into the stomach. As controls, three C57BLKS/J db/db mice were administered 0.1% SLS in an amount of 120 mg/kg in the same manner as described above. After administration, a time-dependent weight increase ratio, weight change, and intake amount were measured and results are illustrated in FIG. 7 below. In addition, blood sugar was measured and results are illustrated in FIG. 8 below.
Weights of the experimental animals were measured immediately before administration of a test material and six times a week from an administration initiation day to a test termination day. Increased total weights were calculated by subtracting weights measured on an experiment initiation day from weights measured one day before an experiment termination day. Food intake amounts were calculated by measuring feed supply amounts and remaining amounts twice a week from an initiation day of test material administration to a test termination day for each individual. Blood sugar was measured before an administration initiation day of the test material and once a week between an administration initiation day and a test termination day.

Where [1] appears, read: Exp. Ex. 3-1, FIG. 1: 10 week-old ob/ob mice, 40, 80, 120 mg/kg oral once every day, two weeks.
[2] abbreviates: Exp. Ex. 3-2, FIG. 2: 6 week-old ob/ob mice, 100 mg/kg oral.
The mark [3] stands for this setting: Exp. Ex. 3-10, FIG. 13: 6 week-old ob/ob mice, 100 mg/kg oral, two weeks.
[4] abbreviates: Exp. Ex. 3-11, FIG. 14: 6.5 week-old ob/ob mice, 100 mg/kg oral, one week.
The mark [5] stands for this setting: Exp. Ex. 3-12, FIG. 15: 6 week-old ob/ob mice, 100 mg/kg oral, two weeks.
[6] abbreviates: Exp. Ex. 3-13, FIG. 16: 6 week-old ob/ob mice, 100 mg/kg oral, one week.
The mark [7] stands for this setting: Exp. Ex. 4, FIG. 7: 7 week-old db/db mice, 40, 80, 120 mg/kg oral once every day.

As to `CC(C)c1nc2c([nH]1)C(=O)C(=O)c1ccccc1-2` [Example 1, 2-isopropyl-1H-naphtho[2,1-d]imidazole-4,5-dione], the intake amount result in the assay with C57BL/6J Lep ob/ob mice (setting [1]) is “significantly decreased”; with C57BL/6J Lep ob/ob mice (setting [2]), “significantly decreased”; in the assay with C57BL/6J Lep ob/ob mice (setting [3]), “significantly decreased in some sections”; in the assay with C57BL/6J Lep ob/ob mice (setting [4]), “significantly decreased in some sections”; with C57BL/6J Lep ob/ob mice (setting [5]) it was “significantly decreased in some sections”; in the assay on C57BL/6J Lep ob/ob mice (setting [6]), “significantly decreased in some sections”. For the same compound, the intake amount entry with C57BLKS/J db/db mice (setting [7]) is given as “significantly decreased”. The weight change entry in the assay with C57BL/6J Lep ob/ob mice (setting [1]) was “significantly decreased”; in the assay on C57BL/6J Lep ob/ob mice (setting [2]) it was “significantly decreased”; in the assay on C57BL/6J Lep ob/ob mice (setting [3]), “significantly decreased in some sections”; with C57BL/6J Lep ob/ob mice (setting [4]) it was “significantly decreased in some sections”; with C57BL/6J Lep ob/ob mice (setting [5]), “significantly decreased in some sections”; in the assay with C57BL/6J Lep ob/ob mice (setting [6]) it was “significantly decreased in some sections”. Also, the weight change entry in the assay on C57BLKS/J db/db mice (setting [7]) is “significantly decreased”. The weight increase ratio result in the assay with C57BL/6J Lep ob/ob mice (setting [1]) is given as “significantly decreased”; in the assay with C57BL/6J Lep ob/ob mice (setting [2]), “significantly decreased”; in the assay with C57BL/6J Lep ob/ob mice (setting [3]) it was “significantly decreased in some sections”; in the assay on C57BL/6J Lep ob/ob mice (setting [4]), “significantly decreased in some sections”; in the assay with C57BL/6J Lep ob/ob mice (setting [5]) it was “significantly decreased in some sections”; with C57BL/6J Lep ob/ob mice (setting [6]), “significantly decreased in some sections”. Besides, in the assay on C57BLKS/J db/db mice (setting [7]), the weight increase ratio result was “significantly decreased”. For the same compound, the blood sugar amount result in the assay on C57BLKS/J db/db mice (Exp. Ex. 4, FIG. 8: 7 week-old db/db mice, 40, 80, 120 mg/kg oral once every day, measured once a week) is “significantly decreased”.

These data come from patent publication US10766882B2, “1,2-naphthoquinone based derivative and method of preparing the same” (YUNGJIN PHARM. CO., LTD., priority 2013, dated 2020).
